According to the NIST ThermoML archive (doi:10.1016/j.jct.2012.03.014):

Experiment: cn = amount concentration of the nth substance listed, in mol/dm3
Settings: 298.15 K, 101 kPa, Liquid, Taylor dispersion method

CC(=O)Nc1ccc(O)cc1 [N-acetyl-p-aminophenol] + O
Settings | binary diffusion coefficient [m2/s]
c1 = 0.001 | 6.63e-10
c1 = 0.003 | 6.59e-10
c1 = 0.005 | 6.54e-10
c1 = 0.01 | 6.5e-10
c1 = 0.03 | 6.29e-10
c1 = 0.05 | 6.21e-10
